# Like-named read-outs stand apart in the source and are kept apart here. Where no end group is shown, it is not given here.
# Experiments:
# Clostripain [1] = molecular target: T1, Clostripain (Hathewaya histolytica, UniProt P09870); experiment: clostripain assay (BAPNA hydrolysis); assay type: biochemical, Clostridium histolyticum
# T1 construct: purchased Sigma Chemical Corp., St. Louis, Mo
# Method: (§1) Clostripain from Clostridium histolyticum (Sigma Chemical Corp., St. Louis, Mo.) was dissolved in deionized water to a concentration of 1 mg/mL (300 units/mg) and activated with the addition of 10 mmol/L DTT. To measure its hydrolytic activity, clostripain (6 units) was added to […] Hepes buffer, pH 7.5, containing 80 gmol/L BAPNA (benzoyl-arginine-p-nitroanilide), together with 5.6 μmol/L of histatin peptide inhibitor. As controls, assays were performed in the absence of any histatin peptide inhibitor. The activity was monitored continuously at 405 nm using a Molecular Devices VMax microtitre plate reader. The activities were determined from the maximum rates of substrate hydrolysis. Assays were done in duplicate, and the means normalized to the controls.
# [2] = tested on: C. albicans blastoconidia; details: for C. albicans: % killing at 50 μM dose (scoring): highest response seen used in the scoring; for anti-fungal (fungicidal) activity, in words: C. albicans blastoconidia; for C. albicans: LD50 (μM) for % killing: blastoconidia, 1 h at 37° C., pH 7.4
# From the text: C. albicans is a dimorphic yeast. It can exist in a yeast or blastoconidial form, which upon germination develops into the hyphal or germinated form. While the germinated form is considered to be more invasive, most of the C. albicans isolates harvested from the oral cavities of healthy individuals appear to be in the blastoconidial form. (Arendorf, T. M. et al. (1980), Arch. Oral Biol. 25:1-10; Gow, N.A.R. et al. (1987), Criti. Rev. Microbiol. 15:73-78; Odds, F. C. (1988), Candida and Candidosis, 2nd ed., Bailliere Tindall, London, England). Anti-fungal activity of synthetic histatin 5, histatin-based peptide 113, peptides based on portions of the amino acid sequences of histatin-based peptide 113 and peptides derived from histatin-based peptide 113 with specified amino acid substitutions was measured in assays designed to test the effectiveness of the peptides against the blastoconidia form of Candida (Table 1). These assays, which measure killing of blastoconidia of C. albicans, are described in Xu et al., which is herein incorporated by reference. (Xu, T. et al. (1991), Infect. Immun. 59(8):2549-2554).
# A well-described strain of C. albicans was used in the bioassay. This strain, ATCC 44505, was originally isolated from the human oral cavity. Cultures were stored at 4° C. on Sabouraud dextrose agar plates (Difco Laboratories, Detroit, Mich.) until use. Stationary phase growth cells were obtained following growth at 30° C. for 18 h on Sabouraud dextrose agar plates. Colonies were harvested and suspended in 10 mM potassium phosphate buffer (PPB), pH 7.4.
# To initiate log phase growth, an aliquot of stock C. albicans was suspended in Sabouraud dextrose broth (Difco) and incubated at 30° C. in a shaking water bath. The growth phase was determined by taking aliquots of the culture at one hour intervals to monitor the optical density (O.D.) at 560 nm. […] Log phase cells were harvested and utilized in the blastoconidia killing assay in a manner identical to that described for stationary phase cells. A final concentration of 10^5 cells/ml (either stationary or log phase fungus) was used in all assays.
# The standard suspension buffer utilized in the blastospore killing assay was 0.01M PPB, pH 7.4. An alternate suspension buffer, N-2-hydroxyethylpiperazine-N'-2-ethanesulfonic acids (HEPES; Sigma Chemical Co., St. Louis, Mo.), pH 7.4, can also be utilized.
# a. For the killing of blastoconidia assay, 50 μl aliquots of cells (2×10^5 cells/ml) diluted in suspension buffer were allowed to attach to a polystyrene 96-well micro-titer plate (COSTAR, Cambridge, Mass.) for 15 min at room temperature, and then incubated with an equal volume of a histatin or histatin peptide in suspension buffer for 1 h at 37° C. Controls were carried out in the absence of the histatin or histatin peptide. After incubation, wells were washed three times by centrifugation at 1,000 xg for 5 min and covered with aliquots of molten Sabouraud dextrose broth (Difco) containing 2% agarose (Sigma) at 45° C. The plate was then incubated at 30° C. for 8 h. Under such conditions, live cells will divide and begin to form colonies, while dead cells will remain as single cells. To determine the percentage of blastoconidia killed, a total of 100 single cells and/or colonies were counted under a Nikon inverted microscope at 400× magnification and the extent of killing was calculated using the formula: [1-(number of colonies in treated sample)/(number of colonies in control)]×100%.
# Data were obtained by calculating the mean and standard deviation from triplicate assays.
# Clostripain [3] = molecular target: T2, Clostripain (Hathewaya histolytica, UniProt P09870); experiment: clostripain assay (BAPNA hydrolysis); assay type: biochemical, Clostridium histolyticum; remark: listed apart in the source
# T2 construct: purchased Sigma Chemical Corp., St. Louis, Mo
# T2 sequence (P09870 whole entry, looked up): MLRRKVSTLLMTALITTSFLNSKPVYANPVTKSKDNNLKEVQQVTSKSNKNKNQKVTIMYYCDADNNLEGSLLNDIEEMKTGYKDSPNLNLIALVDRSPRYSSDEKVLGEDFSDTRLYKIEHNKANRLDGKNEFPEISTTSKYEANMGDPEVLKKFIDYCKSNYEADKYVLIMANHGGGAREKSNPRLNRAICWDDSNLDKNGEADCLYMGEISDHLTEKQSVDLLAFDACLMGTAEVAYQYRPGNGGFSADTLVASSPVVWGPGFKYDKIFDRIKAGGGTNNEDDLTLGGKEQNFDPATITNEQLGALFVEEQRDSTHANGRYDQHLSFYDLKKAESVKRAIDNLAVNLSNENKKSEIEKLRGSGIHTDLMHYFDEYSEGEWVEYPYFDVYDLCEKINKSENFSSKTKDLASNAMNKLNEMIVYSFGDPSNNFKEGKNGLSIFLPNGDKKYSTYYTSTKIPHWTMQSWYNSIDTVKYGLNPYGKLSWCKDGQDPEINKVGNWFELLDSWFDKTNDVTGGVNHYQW
# Method: as §1
# [4] = read-out: Clostripain: IC50 (μM) for inhibition of Clostripain
Substance,IC50 (Clostripain [1]),"clostripain inhibition, in words (Clostripain [1])",C. albicans: % killing at 50 μM dose (scoring) [2],"anti-fungal (fungicidal) activity, in words [2]",IC50 (Clostripain [1]; [4]),C. albicans: LD50 (μM) for % killing [2],"clostripain inhibition, in words (Clostripain [3])","anti-fungal activity at pH 4.0, in words ([2]; pH 4.0)"
AKRHHGYKRKF [peptide 118],45 µM,clostripain inhibition effects,++++ (++++80-100%),C. albicans blastoconidia killing,,,,
AKRHHGYKR [peptide 120],> 50 µM,clostripain inhibition effects,++ (++20-50%),C. albicans blastoconidia killing,,,,
KRHHGYKRKF [peptide 129],,clostripain inhibition effects,,,19 µM,27 µM,,
AKRHHGYKRK [peptide 119],> 50 µM,clostripain inhibition effects,++ (++20-50%),C. albicans blastoconidia killing,,,,
"His 11: histatin 11 (SEQ ID NO: 11), subpeptide of peptide 113 (KRHHGYKR)",,,+ (+<20%),,,,clostripain inhibition effects,
AKRHHGYKRKFH [peptide 113],,clostripain inhibition effects,,,25 µM,5.8 µM,,essentially devoid of anti-fungal activity
peptide 117: subpeptide of peptide 113 (SEQ ID NO: 19) (KRHHGYKRKFH),,,++++ (++++80-100%),C. albicans blastoconidia killing,,,clostripain inhibition effects,
